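Exposure lasted 48 hours, with cells grown in 96-well plates and compounds tested at five concentrations. At the GI50, growth is halved.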 Active and inactive are the calls of the source. No stated cut-off is given here; in the data, active = GI50 up to about 1.1 µM and inactive = higher.

Common to all, as to test: inhibition of tumour cell growth, NCI panel, 48 h
The subject of assay [1] is OVCAR-3.
In assay [2] the test system is CCRF-CEM.
Assay [3] has as its system HCT-15.
The subject of assay [4] is 786-0.
The subject of assay [5] is TK-10.
Assay [6] deals with ACHN.
Assay [7] relates to NCI-H23.
Assay [8] relates to LXFL 529.
The test system of assay [9] is U-251.
For assay [10], the system named is EKVX.
In assay [11] the test system is SNB-75.
In assay [12] the test system is SK-OV-3.
For assay [13], the system named is SNB-19.
Assay [14] has as its system RXF 393.
Assay [15] deals with HOP-92.
Assay [16] concerns Malme-3M.
For assay [17], the system named is A498.
In assay [18] the test system is NCI-H460.
Assay [19] relates to MDA-N.
The test system of assay [20] is T47D.

`CCC1(CC)C(=O)NC(=O)NC1=S`: the GI50 in [1] is > 100 µM (inactive); in assay [2], > 100 µM (inactive); in assay [3], more than 100 µM; in assay [4], > 100 µM (inactive); in assay [5] it was > 100 µM (inactive); in assay [6], > 100 µM (inactive). The GI50 in assay [7], in assay [8], in assay [9], in assay [10], in assay [11] and in assay [12] was > 100 µM (inactive) throughout. The GI50 in [13], in assay [14], in assay [15], in assay [16], in assay [17] and in [18] was > 100 µM (inactive) each time.
As to `COc1ccc(NC(=O)CC2SC(Nc3ccc(Cl)cc3C)=NC2=O)c([N+](=O)[O-])c1` (stereo unspecified), the GI50 was > 100 µM (inactive) in [1]; > 100 µM (inactive) in assay [2]; more than 100 µM in [3]; > 100 µM (inactive) in assay [4]; > 100 µM (inactive) in assay [5]; > 100 µM (inactive) in [6]. Besides, the GI50 in [7], in assay [8], in [9], in assay [10], in assay [11] and in [13] was > 100 µM (inactive) throughout. The GI50 in assay [14], in assay [15], in [16], in assay [17] and in assay [18] was > 100 µM (inactive) each time.
In the case of `O=c1c2c(c1=O)-c1ccccc1CN2`, the GI50 in assay [1] is > 100 µM (inactive); in assay [2] it was > 100 µM (inactive); in assay [3] it was more than 100 µM; in [4], > 100 µM (inactive); in assay [5] it was > 100 µM (inactive); in assay [6], > 100 µM (inactive). Besides, the GI50 in [7], in assay [8], in [9], in assay [10], in assay [11] and in assay [12] was > 100 µM (inactive) throughout. Moreover, the GI50 in assay [13], in assay [14], in assay [15], in [16], in [17] and in assay [18] was > 100 µM (inactive) each time.
As to `O=P1(Oc2ccccc2)C(c2ccccc2)C(c2ccccc2)=NN1c1ccccc1` (stereo unspecified), the GI50 in assay [1] is 19.7 µM (inactive); in assay [2], 30.4 µM (inactive); in assay [3], 19.6 µM; in [4], 33.7 µM (inactive); in assay [5] it was 38.7 µM (inactive); in [6], 24.5 µM (inactive). Besides, the GI50 in assay [7] was 22.8 µM (inactive); in assay [8], 19.8 µM (inactive); in assay [9], 18 µM (inactive); in [10], 37.3 µM (inactive); in assay [11], 30 µM (inactive); in assay [12], 22.6 µM (inactive). Moreover, the GI50 in [13] is 34.9 µM (inactive); in assay [14], 24.2 µM (inactive); in assay [16], 43.7 µM (inactive); in [17] it was 29.6 µM (inactive); in assay [18] it was 24.2 µM (inactive).
Take `Cc1c(C)c([N+](=O)[O-])c2c(c1N)C(=O)c1ccccc1C2=O`: the GI50 in assay [1] was 24.8 µM (inactive); in assay [2], > 100 µM (inactive); in assay [3] it was more than 100 µM; in assay [4], 65.5 µM (inactive); in assay [5], > 100 µM (inactive); in assay [6] it was > 100 µM (inactive). In addition, the GI50 in assay [7], in [8], in assay [9], in assay [10], in assay [11] and in assay [12] was > 100 µM (inactive) in each case. For the same compound, the GI50 in assay [13], in [14], in [15], in assay [16] and in assay [17] was > 100 µM (inactive) in each case.
In the case of `C[C@H]1CC(=O)C2=CCCC3(SCCCS3)[C@@H]2[C@H]1CO`, the GI50 in [1] is > 100 µM (inactive); in [2], 26.9 µM (inactive); in assay [4] it was > 100 µM (inactive); in assay [5], > 100 µM (inactive); in assay [6], > 100 µM (inactive); in [7], > 100 µM (inactive). The GI50 in assay [8] was > 100 µM (inactive); in assay [9], 91.4 µM (inactive); in [10] it was > 100 µM (inactive); in assay [11], > 100 µM (inactive); in assay [12] it was > 100 µM (inactive); in assay [13], > 100 µM (inactive). In addition, the GI50 in [14], in assay [15], in [16], in [17] and in assay [18] was > 100 µM (inactive) throughout.
In the case of `N#C/C(=C\c1ccc2ccccc2c1)C(=O)c1ccccc1`, the GI50 in [19] was 44.6 µM (inactive); in [1] it was > 65.2 µM (inactive); in [2], 23.8 µM (inactive); in assay [3] it was 65 µM; in assay [4], > 61.8 µM (inactive); in assay [20], 36 µM (inactive). Further, the GI50 is > 100 µM (inactive) in [5]; > 100 µM (inactive) in [6]; > 57.4 µM (inactive) in assay [7]; > 86.7 µM (inactive) in assay [8]; 21.9 µM (inactive) in assay [9]; > 100 µM (inactive) in [10]. In addition, the GI50 in [11] is 93.1 µM (inactive); in assay [12] it was > 46.8 µM (inactive); in assay [13] it was > 82.4 µM (inactive); in assay [14], 36.2 µM (inactive); in assay [16], > 95.7 µM (inactive); in assay [17], > 85.7 µM (inactive). Further, the GI50 in [18] was > 94.6 µM (inactive).
For `O=C(OC1CCC(=C2SCCCS2)[C@H]1C1SCCCS1)c1ccccc1` (stereo partly specified), the GI50 in assay [1] is > 100 µM (inactive); in assay [2], > 100 µM (inactive); in assay [3], more than 100 µM; in [4], > 100 µM (inactive); in [5], > 100 µM (inactive); in [6] it was > 100 µM (inactive). Also, the GI50 in assay [7], in assay [8], in assay [9], in [10], in [12] and in [13] was > 100 µM (inactive) in each case. Besides, the GI50 in assay [14] was 67.1 µM (inactive); in [15], 16.9 µM (inactive); in assay [16], 94.6 µM (inactive); in assay [17], > 100 µM (inactive); in assay [18], > 100 µM (inactive).
`O=c1ncccn1C1OC(CO)C(O)C1O` (stereo unspecified): the GI50 was > 100 µM (inactive) in [2]; more than 100 µM in assay [3]; > 100 µM (inactive) in assay [4]; > 100 µM (inactive) in [5]; > 100 µM (inactive) in [6]; > 100 µM (inactive) in assay [7]. Also, the GI50 is > 100 µM (inactive) in assay [8]; > 100 µM (inactive) in assay [9]; > 100 µM (inactive) in assay [10]; > 100 µM (inactive) in [11]; > 100 µM (inactive) in assay [12]; 91.8 µM (inactive) in assay [13]. Moreover, the GI50 in assay [14], in [15], in assay [16], in assay [17] and in [18] was > 100 µM (inactive) throughout.
Take `COc1cc(/C=C\c2ccc(C)cc2)cc(OC)c1OC`: the GI50 was 0.00221 µM (active) in assay [19]; 0.00115 µM (active) in assay [1]; 0.00227 µM (active) in [2]; 0.00746 µM in [3]; 0.00456 µM (active) in assay [4]; 0.0731 µM (active) in assay [5]. For the same compound, the GI50 is 0.0637 µM (active) in assay [6]; 0.0363 µM (active) in [7]; 0.0004 µM (active) in [8]; 0.00441 µM (active) in assay [9]; 0.0721 µM (active) in assay [10]; 0.00281 µM (active) in assay [11]. For the same compound, the GI50 in [12] is 0.0017 µM (active); in assay [13], 0.004 µM (active); in [14], < 0.01 µM (active); in [15], 0.0652 µM (active); in [16], 0.00359 µM (active); in [17] it was < 0.01 µM (active). The GI50 in assay [18] is 0.0232 µM (active).

The record behind these values is ChEMBL document CHEMBL1201862, “PubChem BioAssay data set” (2004).
